Measurements: patent US8735601B2, “Pentamethine cyanine fluorescent dye with N-substituting at β-position of conjugated chain” (Dalian University of Technology, priority 2010, dated 2014)

Experiment: Absorption and emission spectra of dyes in different solvents
Assay type: physicochemical
Parameters: key to Δλ1 / Δλ2: Stokes shift in nm; ε1 (molar extinction coefficient) / ε2 (molar extinction coefficient): scale not given here
Details: Stokes shift to absorption peak 1; solvent DCM
Excerpt: In the present invention, compounds IIa to IIg were synthesized based on compound II, and their spectral properties were investigated. Compared with the traditional pentamethine cyanine dye, for the novel pentamethine cyanine dye with N-substituting at β-position (deviated position), it was observed that, evident blue shift of absorption and emission wavelengths occurred, absorption wavelength blue shifted even largely than that of emission wavelength, absorption spectrum and fluorescence spectrum were no longer mirror-symmetric and had two absorption peaks and a single emission peak, and larger Stokes shift (minimum 60 and 150 nm, and maximum 90 and 230 nm) appeared.

Δλ1	Compound
81	CCN1/C(=C/C=C/C(=C/C2=[N+](CC)c3ccccc3C2(C)C)NCc2ccccc2)C(C)(C)c2ccccc21 [Dye IIe]
87	CCN1/C(=C/C=C/C(=C/C2=[N+](CC)c3ccccc3C2(C)C)N(Cc2ccccc2)Cc2ccccc2)C(C)(C)c2ccccc21 [Dye IIf]

Same assay, conditions: Stokes shift to absorption peak 1; solvent DMSO

Δλ1	Compound
92	CCN1/C(=C/C=C/C(=C/C2=[N+](CC)c3ccccc3C2(C)C)NCc2ccccc2)C(C)(C)c2ccccc21 [Dye IIe]
90	CCN1/C(=C/C=C/C(=C/C2=[N+](CC)c3ccccc3C2(C)C)N(Cc2ccccc2)Cc2ccccc2)C(C)(C)c2ccccc21 [Dye IIf]

Same assay, conditions: Stokes shift to absorption peak 1; solvent Ethanol

Δλ1	Compound
89	CCN1/C(=C/C=C/C(=C/C2=[N+](CC)c3ccccc3C2(C)C)NCc2ccccc2)C(C)(C)c2ccccc21 [Dye IIe]
87	CCN1/C(=C/C=C/C(=C/C2=[N+](CC)c3ccccc3C2(C)C)N(Cc2ccccc2)Cc2ccccc2)C(C)(C)c2ccccc21 [Dye IIf]

Same assay, conditions: Stokes shift to absorption peak 1; solvent Methanol

Δλ1	Compound
88	CCN1/C(=C/C=C/C(=C/C2=[N+](CC)c3ccccc3C2(C)C)NCc2ccccc2)C(C)(C)c2ccccc21 [Dye IIe]
90	CCN1/C(=C/C=C/C(=C/C2=[N+](CC)c3ccccc3C2(C)C)N(Cc2ccccc2)Cc2ccccc2)C(C)(C)c2ccccc21 [Dye IIf]

Same assay, conditions: Stokes shift to absorption peak 1; solvent THF

Δλ1	Compound
86	CCN1/C(=C/C=C/C(=C/C2=[N+](CC)c3ccccc3C2(C)C)NCc2ccccc2)C(C)(C)c2ccccc21 [Dye IIe]
86	CCN1/C(=C/C=C/C(=C/C2=[N+](CC)c3ccccc3C2(C)C)N(Cc2ccccc2)Cc2ccccc2)C(C)(C)c2ccccc21 [Dye IIf]

Same assay, conditions: Stokes shift to absorption peak 1; solvent Water

Δλ1	Compound
101	CCN1/C(=C/C=C/C(=C/C2=[N+](CC)c3ccccc3C2(C)C)NCc2ccccc2)C(C)(C)c2ccccc21 [Dye IIe]
93	CCN1/C(=C/C=C/C(=C/C2=[N+](CC)c3ccccc3C2(C)C)N(Cc2ccccc2)Cc2ccccc2)C(C)(C)c2ccccc21 [Dye IIf]

Same assay, conditions: Stokes shift to absorption peak 2; solvent DCM

Δλ2	Compound
185	CCN1/C(=C/C=C/C(=C/C2=[N+](CC)c3ccccc3C2(C)C)NCc2ccccc2)C(C)(C)c2ccccc21 [Dye IIe]
162	CCN1/C(=C/C=C/C(=C/C2=[N+](CC)c3ccccc3C2(C)C)N(Cc2ccccc2)Cc2ccccc2)C(C)(C)c2ccccc21 [Dye IIf]

Same assay, conditions: Stokes shift to absorption peak 2; solvent DMSO

Δλ2	Compound
174	CCN1/C(=C/C=C/C(=C/C2=[N+](CC)c3ccccc3C2(C)C)NCc2ccccc2)C(C)(C)c2ccccc21 [Dye IIe]
151	CCN1/C(=C/C=C/C(=C/C2=[N+](CC)c3ccccc3C2(C)C)N(Cc2ccccc2)Cc2ccccc2)C(C)(C)c2ccccc21 [Dye IIf]

Same assay, conditions: Stokes shift to absorption peak 2; solvent Ethanol

Δλ2	Compound
179	CCN1/C(=C/C=C/C(=C/C2=[N+](CC)c3ccccc3C2(C)C)NCc2ccccc2)C(C)(C)c2ccccc21 [Dye IIe]
163	CCN1/C(=C/C=C/C(=C/C2=[N+](CC)c3ccccc3C2(C)C)N(Cc2ccccc2)Cc2ccccc2)C(C)(C)c2ccccc21 [Dye IIf]

Same assay, conditions: Stokes shift to absorption peak 2; solvent Methanol

Δλ2	Compound
174	CCN1/C(=C/C=C/C(=C/C2=[N+](CC)c3ccccc3C2(C)C)NCc2ccccc2)C(C)(C)c2ccccc21 [Dye IIe]
166	CCN1/C(=C/C=C/C(=C/C2=[N+](CC)c3ccccc3C2(C)C)N(Cc2ccccc2)Cc2ccccc2)C(C)(C)c2ccccc21 [Dye IIf]

Same assay, conditions: Stokes shift to absorption peak 2; solvent THF

Δλ2	Compound
170	CCN1/C(=C/C=C/C(=C/C2=[N+](CC)c3ccccc3C2(C)C)NCc2ccccc2)C(C)(C)c2ccccc21 [Dye IIe]
156	CCN1/C(=C/C=C/C(=C/C2=[N+](CC)c3ccccc3C2(C)C)N(Cc2ccccc2)Cc2ccccc2)C(C)(C)c2ccccc21 [Dye IIf]

Same assay, conditions: Stokes shift to absorption peak 2; solvent Water

Δλ2	Compound
188	CCN1/C(=C/C=C/C(=C/C2=[N+](CC)c3ccccc3C2(C)C)NCc2ccccc2)C(C)(C)c2ccccc21 [Dye IIe]
171	CCN1/C(=C/C=C/C(=C/C2=[N+](CC)c3ccccc3C2(C)C)N(Cc2ccccc2)Cc2ccccc2)C(C)(C)c2ccccc21 [Dye IIf]

Same assay, conditions: solvent DCM

ε1 (molar extinction coefficient) [cm^−1M]	ε2 (molar extinction coefficient) [cm^−1M]	λabs1 [nm]	λbs2 [nm]	λem [nm]	Compound
2.8	2.1	522	418	603	CCN1/C(=C/C=C/C(=C/C2=[N+](CC)c3ccccc3C2(C)C)NCc2ccccc2)C(C)(C)c2ccccc21 [Dye IIe]
3.1	2.1	528	453	615	CCN1/C(=C/C=C/C(=C/C2=[N+](CC)c3ccccc3C2(C)C)N(Cc2ccccc2)Cc2ccccc2)C(C)(C)c2ccccc21 [Dye IIf]

Same assay, conditions: solvent DMSO

ε1 (molar extinction coefficient) [cm^−1M]	ε2 (molar extinction coefficient) [cm^−1M]	λabs1 [nm]	λbs2 [nm]	λem [nm]	Compound
2.6	2.3	515	433	607	CCN1/C(=C/C=C/C(=C/C2=[N+](CC)c3ccccc3C2(C)C)NCc2ccccc2)C(C)(C)c2ccccc21 [Dye IIe]
3.3	2.2	521	460	611	CCN1/C(=C/C=C/C(=C/C2=[N+](CC)c3ccccc3C2(C)C)N(Cc2ccccc2)Cc2ccccc2)C(C)(C)c2ccccc21 [Dye IIf]

Same assay, conditions: solvent Ethanol

ε1 (molar extinction coefficient) [cm^−1M]	ε2 (molar extinction coefficient) [cm^−1M]	λabs1 [nm]	λbs2 [nm]	λem [nm]	Compound
2.8	2.3	519	429	608	CCN1/C(=C/C=C/C(=C/C2=[N+](CC)c3ccccc3C2(C)C)NCc2ccccc2)C(C)(C)c2ccccc21 [Dye IIe]
3.4	2.5	528	452	615	CCN1/C(=C/C=C/C(=C/C2=[N+](CC)c3ccccc3C2(C)C)N(Cc2ccccc2)Cc2ccccc2)C(C)(C)c2ccccc21 [Dye IIf]

Same assay, conditions: solvent Methanol

ε1 (molar extinction coefficient) [cm^−1M]	ε2 (molar extinction coefficient) [cm^−1M]	λabs1 [nm]	λbs2 [nm]	λem [nm]	Compound
2.7	2.2	517	431	605	CCN1/C(=C/C=C/C(=C/C2=[N+](CC)c3ccccc3C2(C)C)NCc2ccccc2)C(C)(C)c2ccccc21 [Dye IIe]
3.4	2.5	527	451	617	CCN1/C(=C/C=C/C(=C/C2=[N+](CC)c3ccccc3C2(C)C)N(Cc2ccccc2)Cc2ccccc2)C(C)(C)c2ccccc21 [Dye IIf]

Same assay, conditions: solvent THF

ε1 (molar extinction coefficient) [cm^−1M]	ε2 (molar extinction coefficient) [cm^−1M]	λabs1 [nm]	λbs2 [nm]	λem [nm]	Compound
2.9	2.2	510	426	596	CCN1/C(=C/C=C/C(=C/C2=[N+](CC)c3ccccc3C2(C)C)NCc2ccccc2)C(C)(C)c2ccccc21 [Dye IIe]
4.0	2.0	523	453	609	CCN1/C(=C/C=C/C(=C/C2=[N+](CC)c3ccccc3C2(C)C)N(Cc2ccccc2)Cc2ccccc2)C(C)(C)c2ccccc21 [Dye IIf]

Same assay, conditions: solvent Water

ε1 (molar extinction coefficient) [cm^−1M]	ε2 (molar extinction coefficient) [cm^−1M]	λabs1 [nm]	λbs2 [nm]	λem [nm]	Compound
2.3	1.9	516	429	617	CCN1/C(=C/C=C/C(=C/C2=[N+](CC)c3ccccc3C2(C)C)NCc2ccccc2)C(C)(C)c2ccccc21 [Dye IIe]
2.5	1.9	525	447	618	CCN1/C(=C/C=C/C(=C/C2=[N+](CC)c3ccccc3C2(C)C)N(Cc2ccccc2)Cc2ccccc2)C(C)(C)c2ccccc21 [Dye IIf]

Experiment: Measurement of fluorescence quantum yield (Rhodamine B in ethanol as reference)
Assay type: physicochemical
Details: solvent DCM

Φ1 (fluorescence quantum yield)	Φ2 (fluorescence quantum yield)	Compound
0.106	0.075	CCN1/C(=C/C=C/C(=C/C2=[N+](CC)c3ccccc3C2(C)C)NCc2ccccc2)C(C)(C)c2ccccc21 [Dye IIe]
0.113	0.105	CCN1/C(=C/C=C/C(=C/C2=[N+](CC)c3ccccc3C2(C)C)N(Cc2ccccc2)Cc2ccccc2)C(C)(C)c2ccccc21 [Dye IIf]

Same assay, conditions: solvent DMSO

Φ1 (fluorescence quantum yield)	Φ2 (fluorescence quantum yield)	Compound
0.009	0.008	CCN1/C(=C/C=C/C(=C/C2=[N+](CC)c3ccccc3C2(C)C)NCc2ccccc2)C(C)(C)c2ccccc21 [Dye IIe]
0.004	0.005	CCN1/C(=C/C=C/C(=C/C2=[N+](CC)c3ccccc3C2(C)C)N(Cc2ccccc2)Cc2ccccc2)C(C)(C)c2ccccc21 [Dye IIf]

Same assay, conditions: solvent Ethanol

Φ1 (fluorescence quantum yield)	Φ2 (fluorescence quantum yield)	Compound
0.019	0.017	CCN1/C(=C/C=C/C(=C/C2=[N+](CC)c3ccccc3C2(C)C)NCc2ccccc2)C(C)(C)c2ccccc21 [Dye IIe]
0.010	0.009	CCN1/C(=C/C=C/C(=C/C2=[N+](CC)c3ccccc3C2(C)C)N(Cc2ccccc2)Cc2ccccc2)C(C)(C)c2ccccc21 [Dye IIf]

Same assay, conditions: solvent Methanol

Φ1 (fluorescence quantum yield)	Φ2 (fluorescence quantum yield)	Compound
0.008	0.007	CCN1/C(=C/C=C/C(=C/C2=[N+](CC)c3ccccc3C2(C)C)NCc2ccccc2)C(C)(C)c2ccccc21 [Dye IIe]
0.005	0.004	CCN1/C(=C/C=C/C(=C/C2=[N+](CC)c3ccccc3C2(C)C)N(Cc2ccccc2)Cc2ccccc2)C(C)(C)c2ccccc21 [Dye IIf]

Same assay, conditions: solvent THF

Φ1 (fluorescence quantum yield)	Φ2 (fluorescence quantum yield)	Compound
0.085	0.075	CCN1/C(=C/C=C/C(=C/C2=[N+](CC)c3ccccc3C2(C)C)NCc2ccccc2)C(C)(C)c2ccccc21 [Dye IIe]
0.036	0.034	CCN1/C(=C/C=C/C(=C/C2=[N+](CC)c3ccccc3C2(C)C)N(Cc2ccccc2)Cc2ccccc2)C(C)(C)c2ccccc21 [Dye IIf]

Same assay, conditions: solvent Water

Φ1 (fluorescence quantum yield)	Φ2 (fluorescence quantum yield)	Compound
0.003	0.001	CCN1/C(=C/C=C/C(=C/C2=[N+](CC)c3ccccc3C2(C)C)NCc2ccccc2)C(C)(C)c2ccccc21 [Dye IIe]
0.001	0.002	CCN1/C(=C/C=C/C(=C/C2=[N+](CC)c3ccccc3C2(C)C)N(Cc2ccccc2)Cc2ccccc2)C(C)(C)c2ccccc21 [Dye IIf]
